A short description of data set [1]: Superoxide scavenging activity (hypoxanthine-xanthine oxidase, DMPO spin trapping, ESR). It counts as biochemical. Particulars: pH 7.3, read-out: O2^- scavenging activity IC50. An excerpt: Activity of PQQ esters to scavenge superoxide (O2^-) produced in the system of hypoxanthinexanthine oxidase was examined by spin trapping method [using 5,5-dimethyl-l-pyrroline-N-oxide (hereinafter referred to as "DMPO") as a spin trapping agent] where electron spin resonance (hereinafter referred to as "ESR") was used.
Hypoxanthine+2O2 →2O2^- +uric acid (xanthine oxidase)
The following reagents were successively put in a test tube and stirred after addition of the hypoxanthine 7 to initiate the reaction and the reaction mixture was transferred to a quartz cell used for measurement of ESR.
Superoxide scavenging activity of OPQ and esters thereof was examined in the same manner as in Example 1.

Data set [2] in a line: Hydroxy radical scavenging activity (H2O2-(Fe^2+-DTPA), DMPO spin trapping, ESR). It counts as biochemical. Particulars: pH 7.3, read-out: .OH scavenging activity IC50. From the text:
Activity of PQQ esters to scavenge hydroxy radical (·OH) produced in the system of H2 O2 --(Fe^2+ -DTPA) was examined by spin trapping method [using 5,5-dimethyl-1-pyrroline-N-oxide (hereinafter referred to as "DMPO") as a spin trapping agent] where electron spin resonance (hereinafter referred to as "ESR") was used. DTPA means diethylenetriamine-pentaacetic acid.
H2 O2 +Fe^2 -DTPA complex→·OH+OH^-
The following reagents were successively put in a test tube and stirred after addition of H2 O2 6 to initiate the reaction and the reaction mixture was transferred to a quartz cell used for measurement of ESR.
Hydroxy radical scavenging activity of OPQ and esters thereof was examined in the same manner as in Example 3.

The conditions of data set [3]: not told.
Procedure: Permeability of various compounds through capsule of crystal bovine lens was examined in accordance with the method mentioned in "Crystal Lens and Biochemical Mechanism thereof" (pages 436-440) edited by Shuzo Iwata (Medical Aoi Publisher). Each compound dissolved in 10 mM HEPES buffer (containing 1% DMSO in the case of PQQ triesters) was put in an apparatus for measurement of membrane permeation constant and left to stand for 16 hours at 35° C. and then amount of the compound which migrated was measured by ultraviolet absorption (243 nm for PQQ·2Na and 255 nm for PQQ esters) to obtain membrane permeation constant.
In data set [4] the test system is mice. The settings on record: mouse, in vivo, ip. On the procedure:
One group consisted of 8 mice. For administration, PQQ·2Na and OPQ and esters thereof were dissolved in physiological saline and PQQ trimethyl ester and PQQ triallyl ester were suspended in 1% Tween 80-containing physiological saline, respectively.
PQQ·2Na, PQQ trimethyl ester, PQQ triallyl ester and OPQ and esters thereof were intraperitoneally administered to mice and they were bred in the same manner as in the above acute toxicity test. Urine of the mice was taken every day and glucose concentration was measured using clinical examination reagent (trademark: […] 2 manufactured by Miles.Sankyo Co.).

For data set [5], the system named is mice. The experiment in a line: Kidney Toxicity Determined by Blood Examination (1). It counts as in vivo. The settings on record: mouse serum. On the procedure:
After lapse of one day from the administration, the mice were fasted (with feeding only water) and then after 18 hours, blood was collected and serum was obtained therefrom. Glucose, urea nitrogen and creatinine in the serum were examined by clinical examination reagent (trademark: FUJI DRYCHEMSLIDE manufactured by Fuji Photo Film Co., Ltd.).

For data set [6], the system named is Hydrocortisone-Induced Cataract of Hen's Eggs. The experiment in a line: Effect on hydrocortisone-induced cataract of hen's eggs. It counts as in vivo, white leghorn (hen's eggs). The settings on record: 1 μmole at 3, 10 and 20 h after hydrocortisone; lens at 48 h. The procedure: Fertilized eggs of white leghorn were incubated in an incubator at a temperature of 37° C. and 70% in humidity. The day on which the incubation was started was taken to be one day old. […] eggs of 15 day old were prepared and divided into 7 groups, each of which included 5 eggs (A-G). A small hole was bored through the eggshell above air chamber of the eggs of groups B-G and 0.25 μmole (as 0.2 ml solution) of hydrocortisone sodium succinate was administered into the air chamber through the hole and then, the hole was sealed with a cellophane tape. To The eggs of groups C-G was administered 1 μmole of following compounds after 3, 10 and 20 hours from administration of hydrocortisone sodium succinate. That is, 0.2 ml of a solution of PQQ·2Na in distilled water was administered to the eggs of group C, 0.2 ml of a suspension of PQQ trimethyl ester in 1% Tween 80 solution was administered to the eggs of group D, 0.2 ml of a suspension of triallyl ester in 1% Tween 80 solution was administered to the eggs of group E, 0.2 ml of a solution of OPQ in 10 mM NaCO3 solution was administered to the eggs of group F, and 0.2 ml of a solution of methyl OPQ in 10 mM NaCO3 solution was administered to the eggs of group G.
Crystal lens was taken out after 48 hours from administration of hydrocortisone sodium succinate and degree of cataract was judged by the criteria according to the Nishigori et al method (Nishigori et al, "Investigative Ophthalmology & Visual Science", Vol. 25, page 1051, 1984).
5 The whole nucleus was hazed in white.

Like-named read-outs stand apart in the source and are kept apart here.

On to `C=CCOC(=O)c1cc(C(=O)OCC=C)c2c(n1)c1ncoc1c1cc(C(=O)OCC=C)[nH]c12` [OPQ triallyl ester], for which the IC50 in data set [1] (Example 2, Table 7) was 2.39 µM.

For PQQ monomethyl ester, the IC50 in data set [1] (Example 1, Table 6) turned out to be 0.0609 µM.

For the compound `O=C(O)CCc1nc2c3nc(C(=O)O)cc(C(=O)O)c3c3[nH]c(C(=O)O)cc3c2o1` [2-Carboxyethyl OPQ, 2-carboxyethyl OPQ (R=CH2 CH2 CO2 H)], the IC50 in data set [2] (Example 4, Table 9) was found to be 110 µM; in data set [1] (Example 2, Table 7) it was 2.96 µM.

For the compound `CC(C)Cc1nc2c3nc(C(=O)O)cc(C(=O)O)c3c3[nH]c(C(=O)O)cc3c2o1` [2-Methylpropyl OPQ, 2-methylpropyl OPQ (R=CH2 CH(CH3)2)], the IC50 in data set [2] (Example 4, Table 9) worked out at 421 µM; in data set [1] (Example 2, Table 7), 4.88 µM.

Consider `CC(C)c1nc2c3nc(C(=O)O)cc(C(=O)O)c3c3[nH]c(C(=O)O)cc3c2o1` [1-Methylethyl OPQ, 1-methylethyl OPQ (R=CH(CH3)2)], for which the half-inhibitory concentration (IC50) was determined as 200 µM in data set [2] (Example 4, Table 9) and 3.14 µM in data set [1] (Example 2, Table 7).

In the case of `O=C(OCc1ccccc1)c1cc(C(=O)OCc2ccccc2)c2c(n1)C(=O)C(=O)c1cc(C(=O)OCc3ccccc3)[nH]c1-2` [PQQ tribenzyl ester], the IC50 in data set [2] (Example 3, Table 8) turned out to be 31 µM; in data set [1] (Example 1, Table 6), 0.0769 µM.

As for PQQ dimethyl ester, in data set [1] (Example 1, Table 6), the IC50 came to 0.0106 µM.

As to `CCOC(=O)c1cc(C(=O)OCC)c2c(n1)C(=O)C(=O)c1cc(C(=O)OCC)[nH]c1-2` [PQQ triethyl ester], the Membrane permeation constant in data set [3] (bovine, 960 min) is 1.22 ± 0.37 10 ^-7 cm^2 · sec^-1. Also, the “membrane permeation constant relative to that of PQQ.2Na” value in data set [3] is “about twice”.

Take `O=C(O)c1cc(C(=O)O)c2c(n1)c1nc(Cc3ccccc3)oc1c1cc(C(=O)O)[nH]c12` [Benzyl OPQ, benzyl OPQ]: the glucose in urine result in data set [4] (20 mg/kg), in data set [4] (40 mg/kg), in data set [4] (80 mg/kg), in data set [4] (160 mg/kg) and in data set [4] (200 mg/kg) was “-” throughout. Besides, the IC50 in data set [2] (Example 4, Table 9) came to 211 µM; in data set [1] (Example 2, Table 7) it was 3.01 µM. Also, the Creatinine came to 0.68 ± 0.05 mg/dL in data set [5] (40 mg/kg), 0.68 ± 0.04 mg/dL in data set [5] (80 mg/kg), 0.68 ± 0.08 mg/dL in data set [5] (160 mg/kg) and 0.73 ± 0.05 mg/dL in data set [5] (200 mg/kg). Besides, the Glucose in data set [5] (40 mg/kg) was found to be 90 ± 24 mg/dL; in data set [5] (80 mg/kg), 87 ± 17 mg/dL; in data set [5] (160 mg/kg), 87 ± 21 mg/dL; in data set [5] (200 mg/kg), 84 ± 18 mg/dL. The Urea nitrogen came out at 23 ± 3 mg/dL in data set [5] (40 mg/kg), 23 ± 2 mg/dL in data set [5] (80 mg/kg), 26 ± 3 mg/dL in data set [5] (160 mg/kg) and 25 ± 3 mg/dL in data set [5] (200 mg/kg).

Regarding `Cc1nc2c3nc(C(=O)O)cc(C(=O)O)c3c3[nH]c(C(=O)O)cc3c2o1` [Methyl OPQ, methyl OPQ (R=CH3)], in data set [6], the “Judgement 1 (No haze was seen in crystal lens), eggs” value is on record as 1/5; the “Judgement 3 (Clear ring of white haze was seen in crystal lens), eggs” value is 2/5; the “Judgement 4 ~ 5 (white haze of pinhole size in nucleus ~ whole nucleus hazed in white), eggs” value is 2/5. The IC50 in data set [2] (Example 4, Table 9) came to 153 µM. Further, the IC50 in data set [1] (Example 2, Table 7) turned out to be 1.64 µM.

`O=C(O)c1cc(C(=O)O)c2c(n1)c1nc(CO)oc1c1cc(C(=O)O)[nH]c12` [Hydroxymethyl OPQ, hydroxymethyl OPQ (R=CH2 OH)]: the half-maximal inhibitory concentration (IC50) in data set [2] (Example 4, Table 9) is 305 µM; in data set [1] (Example 2, Table 7), 3.52 µM.

Take `CCC(C)c1nc2c3nc(C(=O)O)cc(C(=O)O)c3c3[nH]c(C(=O)O)cc3c2o1` (stereo not drawn) [1-Methylpropyl OPQ, 1-methylpropyl OPQ (R=CH(CH3)CH2 CH3)]: the glucose in urine entry in data set [4] (20 mg/kg), in data set [4] (40 mg/kg), in data set [4] (80 mg/kg), in data set [4] (160 mg/kg) and in data set [4] (200 mg/kg) was “-” throughout. Also, the IC50 in data set [2] (Example 4, Table 9) amounted to 252 µM; in data set [1] (Example 2, Table 7) it was 3.53 µM. For the same compound, the Creatinine stood at 0.80 ± 0.08 mg/dL in data set [5] (40 mg/kg), 0.78 ± 0.04 mg/dL in data set [5] (80 mg/kg), 0.78 ± 0.04 mg/dL in data set [5] (160 mg/kg) and 0.83 ± 0.17 mg/dL in data set [5] (200 mg/kg). For the same compound, the Glucose was determined as 87 ± 20 mg/dL in data set [5] (40 mg/kg), 104 ± 19 mg/dL in data set [5] (80 mg/kg), 87 ± 22 mg/dL in data set [5] (160 mg/kg) and 66 ± 11 mg/dL in data set [5] (200 mg/kg). Further, the Urea nitrogen in data set [5] (40 mg/kg) was found to be 26 ± 1 mg/dL; in data set [5] (80 mg/kg) it was 22 ± 3 mg/dL; in data set [5] (160 mg/kg) it was 27 ± 4 mg/dL; in data set [5] (200 mg/kg) it was 27 ± 6 mg/dL.

Consider `NC(=O)CCc1nc2c3nc(C(=O)O)cc(C(=O)O)c3c3[nH]c(C(=O)O)cc3c2o1` [2-Carbamoylethyl OPQ, 2-carbamoylethyl OPQ (R=CH2 CH2 CONH2)], for which the IC50 in data set [2] (Example 4, Table 9) turned out to be 194 µM; in data set [1] (Example 2, Table 7), 3.2 µM.

As for `CSCCc1nc2c3nc(C(=O)O)cc(C(=O)O)c3c3[nH]c(C(=O)O)cc3c2o1` [2-Methylthioethyl OPQ, 2-methylthioethyl OPQ (R= CH2 CH2 SCH3)], the glucose in urine entry in data set [4] (20 mg/kg), in data set [4] (40 mg/kg), in data set [4] (80 mg/kg), in data set [4] (160 mg/kg) and in data set [4] (200 mg/kg) was “-” each time. In addition, the IC50 in data set [2] (Example 4, Table 9) is 200 µM; in data set [1] (Example 2, Table 7) it was 3.94 µM. The Creatinine was found to be 0.76 ± 0.05 mg/dL in data set [5] (40 mg/kg), 0.68 ± 0.08 mg/dL in data set [5] (80 mg/kg), 0.64 ± 0.05 mg/dL in data set [5] (160 mg/kg) and 0.73 ± 0.06 mg/dL in data set [5] (200 mg/kg). Further, the Glucose in data set [5] (40 mg/kg) stood at 96 ± 26 mg/dL; in data set [5] (80 mg/kg), 88 ± 29 mg/dL; in data set [5] (160 mg/kg) it was 97 ± 22 mg/dL; in data set [5] (200 mg/kg), 72 ± 16 mg/dL. Further, the Urea nitrogen in data set [5] (40 mg/kg) turned out to be 26 ± 4 mg/dL; in data set [5] (80 mg/kg), 26 ± 5 mg/dL; in data set [5] (160 mg/kg), 26 ± 3 mg/dL; in data set [5] (200 mg/kg), 26 ± 2 mg/dL.

On to `O=C(O)c1cc(C(=O)O)c2c(n1)c1nc(Cc3ccc(O)cc3)oc1c1cc(C(=O)O)[nH]c12` [4-Hydroxyphenylmethyl OPQ, 4-hydroxyphenylmethyl OPQ], for which the IC50 in data set [2] (Example 4, Table 9) is 314 µM; in data set [1] (Example 2, Table 7) it was 4.12 µM.

The term IC50 denotes the midpoint of a concentration-inhibition curve.
